{"source": "patent US12545653B2", "about": "“Compound as PPAR agonist and application thereof” (USA Elixiria Biotech Inc., priority 2019, dated 2026)", "key": {"[1]": {"system": "rat model of hyperglycemia-induced nephropathy", "test": "Hyperglycemia-induced nephropathy model (streptozotocin)", "assay_type": "in vivo", "conditions": "streptozotocin rats, 5 mg/kg body weight/day in food, 90 days", "procedure": "The method was as follows:\nWild type Sprague-Dawley rats were used. The compounds was dissolved in DMSO and mixed into food pellets. The animals were given ad libitum access to the pellets. […] In addition, 3 days before compound treatment, the animal of group 2 to 4 were given a single intraperitoneal injection of streptozotocin, and 3 days later, blood glucose levels were measured from tail veins using a glucose meter. Animals with blood glucose levels above 500˜650 milligrams per deciliter were considered as hyperglycemia and were used for further study. No any side effect, or significant body weight changes, or significant dietary changes were found during the administration. After 90 days after initiation of treatment, blood pressure values were measured with the tail cuff system. The day before the kidneys were harvested, animals were placed in metabolic cages for 24 h for urine collection, and albumin to creatinine ratio (ACR) was measured. Animals were then fasted for 12 hours and sacrificed under anesthesia with a 10% chloral hydrate solution (0.3 g/kg). Serum samples were isolated and biochemical parameters were analyzed with by enzyme colorimetry in an automatic analyzer (Roche) to determine the FBG (fasting blood glucose) level (unit millimole/L). In addition, fasting insulin (FINS) levels, where the units are milliIU/L, were determined by enzyme-linked immunosorbent assay (ELISA) method with anti-rat insulin antibodies, and TNF-α was detected by rat tumor necrosis factor-α (TNF-α) ELISA kit (BD). […] The difference is significant with P<0.05."}, "[2]": {"system": "dIoN-CCI rat model of trigeminal neuropathic pain", "test": "Trigeminal neuralgia model (dIoN-CCI), Von Frey mechanical threshold", "conditions": "dIoN-CCI rats", "from_the_text": "A common rat model of trigeminal neuralgia is a chronic compression injury model (CCI) caused by ligation of the infraorbital nerve (IoN). In the present study, an improved rat model of trigeminal neuropathic pain was used, in which CCI is induced by ligation of distal segment of IoN (dIoN). Wild type male Sprague-Dawley rats with body weight 250 to 260 grams underwent dIoN-CCI surgery experiments. The mechanical threshold of pain in rats without surgery experiments will exceed 6 grams. If the dIoN-CCI surgery is successful, it will reduce the pain threshold to less than 2 grams.\nThe mice were divided into the following 11 groups with 4 to 5 mice in each group. The formulation used for transdermal treatment is cream. […] The compound administration of each group starts on the third day after successful dIoN-CCI surgery. […] The method for detecting rat facial hypersensitivity is performed using Von Frey filaments. An analysis of variance (ANOVA) and Dunnett post hoc comparison test are used to compare the significance of the differences between different groups of data. The difference is significant with P<0.05."}}}
{"molecule": "CCc1ccc(CC/C=C/c2ccc3c(c2)C(=O)CC3)cc1", "note": "[ELB00824, (E)-6-(4-(4-ethylphenyl)but-1-en-1-yl)-2,3-dihydro-1H-inden-1-one]", "values": [{"measurement": "blood TNF-α level compared with disease control group", "setting": "[1]", "result": "significant TNF-α level reduction"}, {"measurement": "insulin resistance index ISI=ln (FBG*FINS) compared with disease control group", "setting": "[1]", "result": "significant ISI increase"}, {"measurement": "urine albumin to creatinine ratio (ACR) compared with disease control group", "setting": "[1]", "result": "significant ACR reduction"}, {"measurement": "duration of anti-allodynic effect (mechanical threshold 10 grams and above)", "setting": "[2]; IP, 20 mg/kg body weight", "result": 1.8, "unit": "h"}, {"measurement": "mechanical pain threshold after 1 hour of administration", "setting": "[2]; IP, 20 mg/kg body weight", "result": "12.8 ± 2.2", "unit": "g"}, {"measurement": "minimum effective anti-allodynic dose", "setting": "[2]; oral", "result": 3, "unit": "mg/kg"}, {"measurement": "mechanical threshold 2 hours after oral administration", "setting": "[2]; oral 3 mg/kg body weight, Von Frey", "result": "4.2 ± 0.8", "unit": "g"}, {"measurement": "duration of the anti-allodynic effect", "setting": "[2]; oral 10 mg/kg", "result": 2, "unit": "h"}, {"measurement": "mechanical pain threshold 2 hours after oral administration", "setting": "[2]; oral 10 mg/kg body weight, Von Frey", "result": "8.9 ± 2", "unit": "g"}, {"measurement": "duration of anti-allodynic effect (mechanical threshold 10 grams and above)", "setting": "[2]; oral, 20 mg/kg body weight", "result": 0.7, "unit": "h"}, {"measurement": "mechanical pain threshold after 1 hour of administration", "setting": "[2]; oral, 20 mg/kg body weight", "result": "6.8 ± 1.9", "unit": "g"}, {"measurement": "anti-allodynic property relative to pioglitazone", "setting": "[2]; oral, from minimum effective doses", "result": "about 100 times"}, {"measurement": "mechanical pain threshold after 1 hour of administration", "setting": "[2]; transdermal cream containing 7% ELB00824, 20 mg/kg body weight", "result": "19.8 ± 3.1", "unit": "g"}, {"measurement": "duration of anti-allodynic effect (mechanical threshold 10 grams and above)", "setting": "[2]; transdermal, 20 mg/kg body weight", "result": 2.3, "unit": "h"}]}
